Patent US10231954B2, “Neurodegenerative therapies” (LYTIX BIOPHARMA AS, priority 2014, dated 2019)
Read-outs that look alike come from different tables or passages of the source.

Columns and labels:
Type in all cases: biochemical
RSK1 = RSK1 (Homo sapiens, UniProt Q15418); experiment: Kinase profiling RSK1; conditions: for remaining activity at 100 µM: read-out: residual kinase activity, RSK1
From the text: (§1) Any value less that 25 is considered to be highly significant inhibition.

CHK2 = CHK2 (Homo sapiens, UniProt O96017); experiment: Kinase profiling CHK2; conditions: for remaining activity at 100 µM: read-out: residual kinase activity, CHK2
From the text: as §1

NEK6 = NEK6 (Homo sapiens, UniProt Q9HC98); experiment: Kinase profiling NEK6; conditions: for remaining activity at 100 µM: read-out: residual kinase activity, NEK6
From the text: as §1

PIM1 = PIM1 (Homo sapiens, UniProt P11309); experiment: Kinase profiling PIM1; conditions: for remaining activity at 100 µM: read-out: residual kinase activity, PIM1
From the text: as §1

EF2K = EF2K (Homo sapiens, UniProt O00418); experiment: Kinase profiling EF2K; conditions: for remaining activity at 100 µM: read-out: residual kinase activity, EF2K
From the text: as §1

MST2 = molecular target: T1, MST2 (Homo sapiens, UniProt Q13188); experiment: Kinase profiling MST2; conditions: for remaining activity at 100 µM: read-out: residual kinase activity, MST2
T1 sequence (Q13188 1-491): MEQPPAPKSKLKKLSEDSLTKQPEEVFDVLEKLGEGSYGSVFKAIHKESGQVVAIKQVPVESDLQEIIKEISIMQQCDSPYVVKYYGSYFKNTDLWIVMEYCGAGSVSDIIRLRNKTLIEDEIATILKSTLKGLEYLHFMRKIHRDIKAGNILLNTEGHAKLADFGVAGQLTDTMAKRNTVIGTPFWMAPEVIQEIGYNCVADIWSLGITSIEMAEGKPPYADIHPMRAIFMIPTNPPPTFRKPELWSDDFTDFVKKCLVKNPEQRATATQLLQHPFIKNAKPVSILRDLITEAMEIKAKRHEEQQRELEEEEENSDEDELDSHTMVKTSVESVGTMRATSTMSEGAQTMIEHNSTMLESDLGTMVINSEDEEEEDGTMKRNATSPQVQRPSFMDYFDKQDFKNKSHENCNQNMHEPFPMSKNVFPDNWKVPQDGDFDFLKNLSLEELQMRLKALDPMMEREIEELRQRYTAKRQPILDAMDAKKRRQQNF
From the text: as §1

MLK3 = MLK3 (Homo sapiens, UniProt Q16584); experiment: Kinase profiling MLK3; conditions: for remaining activity at 100 µM: read-out: residual kinase activity, MLK3
From the text: as §1

TAK1 = molecular target: T2, TAK1 (Homo sapiens, UniProt O43318); experiment: Kinase profiling TAK1; conditions: for remaining activity at 100 µM: read-out: residual kinase activity, TAK1
T2 sequence (O43318 1-303 limits assumed): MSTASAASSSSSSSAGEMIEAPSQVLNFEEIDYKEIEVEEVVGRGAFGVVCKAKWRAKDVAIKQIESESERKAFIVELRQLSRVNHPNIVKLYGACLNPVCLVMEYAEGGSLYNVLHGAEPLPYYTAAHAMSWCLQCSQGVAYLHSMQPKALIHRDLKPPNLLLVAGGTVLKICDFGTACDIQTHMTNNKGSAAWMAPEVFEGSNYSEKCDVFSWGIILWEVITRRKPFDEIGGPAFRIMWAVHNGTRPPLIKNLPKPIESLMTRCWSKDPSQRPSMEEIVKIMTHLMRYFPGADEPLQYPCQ
T2 sequence (Q15750 437-504 partner limits assumed): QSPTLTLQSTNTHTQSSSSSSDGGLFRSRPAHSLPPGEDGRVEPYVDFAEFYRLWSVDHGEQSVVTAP
From the text: as §1

SYK = SYK (Homo sapiens, UniProt P43405); experiment: Kinase profiling SYK; conditions: for remaining activity at 100 µM: read-out: residual kinase activity, SYK
From the text: as §1

HER4 = HER4 (Homo sapiens, UniProt Q15303); experiment: Kinase profiling HER4; conditions: for remaining activity at 100 µM: read-out: residual kinase activity, HER4
From the text: as §1

[1] = 100 micromolar inhibitor concentration, 100 is no change
[2] = 100 micromolar inhibitor, 100 = no change

PIM1, sequence (P11309 whole entry, species assumed): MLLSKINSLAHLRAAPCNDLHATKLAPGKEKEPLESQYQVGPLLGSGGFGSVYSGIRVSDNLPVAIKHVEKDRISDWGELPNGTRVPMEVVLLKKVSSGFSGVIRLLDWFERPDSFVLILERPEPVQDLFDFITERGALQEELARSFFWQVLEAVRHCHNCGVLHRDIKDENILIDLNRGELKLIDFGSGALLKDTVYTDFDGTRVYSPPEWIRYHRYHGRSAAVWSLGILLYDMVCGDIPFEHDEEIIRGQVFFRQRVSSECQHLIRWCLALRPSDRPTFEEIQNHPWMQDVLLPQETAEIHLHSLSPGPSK
CHK2, sequence (O96017 whole entry, species assumed): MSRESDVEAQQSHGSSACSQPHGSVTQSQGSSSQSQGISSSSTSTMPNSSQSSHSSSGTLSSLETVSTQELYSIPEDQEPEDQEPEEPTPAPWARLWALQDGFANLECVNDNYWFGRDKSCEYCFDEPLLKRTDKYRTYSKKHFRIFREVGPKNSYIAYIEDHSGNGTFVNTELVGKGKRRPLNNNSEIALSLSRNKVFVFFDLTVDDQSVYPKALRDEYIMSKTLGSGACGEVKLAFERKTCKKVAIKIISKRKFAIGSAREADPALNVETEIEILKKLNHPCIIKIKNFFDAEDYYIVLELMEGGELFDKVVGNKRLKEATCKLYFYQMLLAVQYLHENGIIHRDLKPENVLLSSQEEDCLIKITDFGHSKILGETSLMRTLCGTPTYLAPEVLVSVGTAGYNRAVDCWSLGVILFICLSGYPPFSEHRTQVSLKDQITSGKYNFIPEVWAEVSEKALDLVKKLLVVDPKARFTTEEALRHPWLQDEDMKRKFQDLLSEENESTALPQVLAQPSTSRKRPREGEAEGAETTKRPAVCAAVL
HER4, sequence (Q15303 26-1308, species assumed): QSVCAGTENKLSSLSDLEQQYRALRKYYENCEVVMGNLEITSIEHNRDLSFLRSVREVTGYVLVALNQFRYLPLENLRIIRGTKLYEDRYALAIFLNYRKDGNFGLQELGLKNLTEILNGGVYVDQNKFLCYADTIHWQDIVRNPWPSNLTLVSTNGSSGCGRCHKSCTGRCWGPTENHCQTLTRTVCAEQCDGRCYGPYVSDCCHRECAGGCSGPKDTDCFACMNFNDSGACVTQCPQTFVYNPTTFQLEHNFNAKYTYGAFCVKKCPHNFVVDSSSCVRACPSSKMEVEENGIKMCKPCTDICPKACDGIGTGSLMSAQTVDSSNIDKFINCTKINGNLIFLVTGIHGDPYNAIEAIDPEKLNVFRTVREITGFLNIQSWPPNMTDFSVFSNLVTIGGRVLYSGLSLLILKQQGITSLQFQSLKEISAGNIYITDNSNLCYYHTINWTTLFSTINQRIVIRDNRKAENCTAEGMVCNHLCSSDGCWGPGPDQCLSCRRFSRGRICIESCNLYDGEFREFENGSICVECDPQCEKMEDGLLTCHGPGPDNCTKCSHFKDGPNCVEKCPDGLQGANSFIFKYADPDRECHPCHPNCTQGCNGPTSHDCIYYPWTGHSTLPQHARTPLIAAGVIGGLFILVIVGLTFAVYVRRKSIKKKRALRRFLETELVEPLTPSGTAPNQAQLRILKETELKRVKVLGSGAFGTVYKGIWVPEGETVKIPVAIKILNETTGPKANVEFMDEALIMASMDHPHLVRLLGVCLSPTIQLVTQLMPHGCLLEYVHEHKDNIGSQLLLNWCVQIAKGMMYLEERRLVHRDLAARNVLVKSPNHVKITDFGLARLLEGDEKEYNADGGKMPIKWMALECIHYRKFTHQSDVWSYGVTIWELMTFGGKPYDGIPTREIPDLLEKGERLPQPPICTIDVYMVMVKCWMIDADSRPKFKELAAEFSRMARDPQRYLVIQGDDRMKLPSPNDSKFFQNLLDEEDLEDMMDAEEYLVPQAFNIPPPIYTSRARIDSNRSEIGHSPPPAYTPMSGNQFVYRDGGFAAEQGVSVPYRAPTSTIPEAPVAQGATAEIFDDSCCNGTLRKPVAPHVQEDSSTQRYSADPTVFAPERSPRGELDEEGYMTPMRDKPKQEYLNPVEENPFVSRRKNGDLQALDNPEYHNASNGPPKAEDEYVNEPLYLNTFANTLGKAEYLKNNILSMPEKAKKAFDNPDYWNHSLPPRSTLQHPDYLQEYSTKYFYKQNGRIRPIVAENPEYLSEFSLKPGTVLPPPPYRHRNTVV
MLK3, sequence (Q16584 whole entry, species assumed): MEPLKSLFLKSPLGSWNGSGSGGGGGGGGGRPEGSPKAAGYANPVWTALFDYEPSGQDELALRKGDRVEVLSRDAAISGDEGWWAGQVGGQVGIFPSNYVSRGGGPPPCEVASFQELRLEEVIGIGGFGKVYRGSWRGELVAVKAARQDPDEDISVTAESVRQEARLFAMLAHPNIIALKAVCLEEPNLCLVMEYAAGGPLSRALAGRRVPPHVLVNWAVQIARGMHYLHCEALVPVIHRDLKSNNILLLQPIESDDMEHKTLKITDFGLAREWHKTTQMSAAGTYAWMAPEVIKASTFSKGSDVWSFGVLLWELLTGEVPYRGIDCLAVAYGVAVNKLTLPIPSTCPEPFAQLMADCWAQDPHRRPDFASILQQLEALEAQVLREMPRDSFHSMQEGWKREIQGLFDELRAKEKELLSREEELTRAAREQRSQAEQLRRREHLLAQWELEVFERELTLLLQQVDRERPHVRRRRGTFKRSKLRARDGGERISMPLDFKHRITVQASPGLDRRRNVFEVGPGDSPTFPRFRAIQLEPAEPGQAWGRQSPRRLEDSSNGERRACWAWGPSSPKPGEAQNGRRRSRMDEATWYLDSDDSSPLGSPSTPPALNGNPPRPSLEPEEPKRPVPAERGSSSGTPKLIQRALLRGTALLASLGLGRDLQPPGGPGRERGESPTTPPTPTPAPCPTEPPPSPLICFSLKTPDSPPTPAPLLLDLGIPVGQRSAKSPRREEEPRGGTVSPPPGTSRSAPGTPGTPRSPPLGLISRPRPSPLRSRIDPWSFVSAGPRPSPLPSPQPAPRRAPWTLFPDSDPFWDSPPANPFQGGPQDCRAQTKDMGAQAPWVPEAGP
NEK6, sequence (Q9HC98 whole entry, species assumed): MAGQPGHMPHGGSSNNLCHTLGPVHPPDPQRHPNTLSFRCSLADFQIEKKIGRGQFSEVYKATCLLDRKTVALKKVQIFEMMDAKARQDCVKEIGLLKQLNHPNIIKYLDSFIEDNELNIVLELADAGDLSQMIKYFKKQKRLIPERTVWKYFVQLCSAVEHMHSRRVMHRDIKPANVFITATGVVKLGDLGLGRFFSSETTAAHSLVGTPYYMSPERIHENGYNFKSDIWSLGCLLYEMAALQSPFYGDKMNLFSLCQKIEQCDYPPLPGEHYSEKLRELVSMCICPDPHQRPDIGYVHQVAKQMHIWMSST
RSK1, sequence (Q15418 whole entry, species assumed): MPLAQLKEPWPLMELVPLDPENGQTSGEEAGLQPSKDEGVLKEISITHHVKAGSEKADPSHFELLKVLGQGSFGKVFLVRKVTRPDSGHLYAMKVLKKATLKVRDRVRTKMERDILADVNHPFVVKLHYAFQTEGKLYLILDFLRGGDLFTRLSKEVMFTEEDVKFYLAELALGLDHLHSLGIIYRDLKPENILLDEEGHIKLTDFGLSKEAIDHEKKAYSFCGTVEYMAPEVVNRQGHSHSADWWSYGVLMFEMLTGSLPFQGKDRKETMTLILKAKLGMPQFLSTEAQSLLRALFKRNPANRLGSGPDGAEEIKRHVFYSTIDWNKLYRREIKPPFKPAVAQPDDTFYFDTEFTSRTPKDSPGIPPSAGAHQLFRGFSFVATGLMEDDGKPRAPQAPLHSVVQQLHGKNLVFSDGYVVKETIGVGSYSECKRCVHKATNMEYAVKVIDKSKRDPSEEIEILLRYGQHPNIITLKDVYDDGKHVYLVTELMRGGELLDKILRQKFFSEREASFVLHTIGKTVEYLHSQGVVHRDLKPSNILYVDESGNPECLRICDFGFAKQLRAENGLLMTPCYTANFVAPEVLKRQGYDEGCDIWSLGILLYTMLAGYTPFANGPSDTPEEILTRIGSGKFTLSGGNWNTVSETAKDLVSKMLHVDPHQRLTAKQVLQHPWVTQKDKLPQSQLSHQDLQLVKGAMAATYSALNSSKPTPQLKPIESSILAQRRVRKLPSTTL

| SMILES | residual kinase activity, RSK1 (RSK1; [1]) | residual kinase activity, CHK2 (CHK2; [1]) | residual kinase activity, NEK6 (NEK6; [1]) | residual kinase activity, PIM1 (PIM1; [1]) | residual kinase activity, EF2K (EF2K; [1]) | residual kinase activity, MST2 (MST2; [1]) | residual kinase activity, MLK3 (MLK3; [1]) | residual kinase activity, TAK1 (TAK1; [1]) | residual kinase activity, SYK (SYK; [1]) | residual kinase activity, HER4 (HER4; [1]) | other results |
| --- | --- | --- | --- | --- | --- | --- | --- | --- | --- | --- | --- |
| O=C(Nc1nc2ccc(F)cc2s1)c1ccccc1 [Compound 03-92] | 79 | 80 | 106 | 69 | 134 | 110 | 49 | 79 | 117 | 90 | – |
| CC(=O)Nc1nc2ccc(F)cc2s1 [Compound 03-94] | 85 | 74 | 92 | 40 | 96 | 91 | 46 | 26 | 96 | 101 | – |
| O=C(Nc1nc2cc(O)ccc2s1)c1ccccc1 [Compound 03-102] | 41 | 26 | 112 | 14 | 92 | 46 | 15 | 31 | 80 | 45 | – |
| COc1ccc2nc(C(=O)Nc3ccccc3)sc2c1 [Compound 13-03] | – | – | – | – | – | – | – | – | – | – | residual kinase activity, RSK1 (RSK1; [2]): 77; residual kinase activity, CHK2 (CHK2; [2]): 92; residual kinase activity, NEK6 (NEK6; [2]): 107; residual kinase activity, PIM1 (PIM1; [2]): 96; residual kinase activity, EF2K (EF2K; [2]): 110; residual kinase activity, MST2 (MST2; [2]): 107; residual kinase activity, MLK3 (MLK3; [2]): 89; residual kinase activity, TAK1 (TAK1; [2]): 96; residual kinase activity, SYK (SYK; [2]): 37; residual kinase activity, HER4 (HER4; [2]): 130 |
| N#Cc1ccc2nc(NC(=O)c3ccccc3)sc2c1 [Compound 03-106] | 96 | 62 | 97 | 32 | 100 | 103 | 56 | 37 | 93 | 82 | – |
| COc1cccc(NC(=O)Nc2nc3cc(O)ccc3s2)c1 [Compound 13-62] | – | – | – | – | – | – | – | – | – | – | residual kinase activity, RSK1 (RSK1; [2]): 25; residual kinase activity, CHK2 (CHK2; [2]): 18; residual kinase activity, NEK6 (NEK6; [2]): 104; residual kinase activity, PIM1 (PIM1; [2]): 14; residual kinase activity, EF2K (EF2K; [2]): 85; residual kinase activity, MST2 (MST2; [2]): 3; residual kinase activity, MLK3 (MLK3; [2]): 13; residual kinase activity, TAK1 (TAK1; [2]): 11; residual kinase activity, SYK (SYK; [2]): 59; residual kinase activity, HER4 (HER4; [2]): 13 |
| COC(=O)c1cccc(C(=O)Nc2nc3ccc(F)cc3s2)c1 [Compound 03-110] | 70 | 51 | 87 | 99 | 94 | 88 | 68 | 68 | 79 | 107 | – |
| COc1ccc2sc(NC(=O)c3cccc(C(N)=O)c3)nc2c1 [Compound 03-113] | 87 | 98 | 99 | 50 | 127 | 119 | 73 | 35 | 108 | 103 | – |
| O=C(Nc1nc2ccc(C(F)(F)F)cc2s1)c1ccccc1 [Compound 03-99] | 92 | 94 | 94 | 78 | 99 | 93 | 72 | 95 | 120 | 85 | – |
| COc1ccc2nc(NC(=O)c3ccccc3)sc2c1 [Compound 03-98] | 74 | 37 | 94 | 76 | 108 | 86 | 20 | 60 | 109 | 73 | – |
| CC(=O)Nc1nc2ccc([N+](=O)[O-])cc2s1 [Compound 13-10] | – | – | – | – | – | – | – | – | – | – | remaining activity at 100 µM (RSK1; [1]): 89%; remaining activity at 100 µM (CHK2; [1]): 59%; remaining activity at 100 µM (NEK6; [1]): 92%; remaining activity at 100 µM (PIM1; [1]): 81%; remaining activity at 100 µM (EF2K; [1]): 95%; remaining activity at 100 µM (MST2; [1]): 97%; remaining activity at 100 µM (MLK3; [1]): 54%; remaining activity at 100 µM (TAK1; [1]): 58%; remaining activity at 100 µM (SYK; [1]): 97%; remaining activity at 100 µM (HER4; [1]): 81% |
| COC(=O)c1cccc(C(=O)Nc2nc3cc(OC)ccc3s2)c1 [Compound 03-108] | 70 | 65 | 93 | 95 | 91 | 77 | 76 | 81 | 96 | 99 | – |
| COc1ccc2sc(NC(=O)c3ccccc3)nc2c1 [Compound 03-95] | 64 | 98 | 86 | 19 | 115 | 95 | 40 | 45 | 83 | 81 | – |
| COC(=O)c1cccc(C(=O)Nc2nc3ccc(C(F)(F)F)cc3s2)c1 [Compound 03-105, Methyl 3-((6-(trifluoromethyl)benzo[d]thiazol-2-yl)carbamoyl)benzoate] | – | – | – | – | – | – | – | – | – | – | remaining activity at 100 µM (RSK1): 87%; remaining activity at 100 µM (CHK2): 89%; remaining activity at 100 µM (NEK6): 90%; remaining activity at 100 µM (PIM1): 72%; remaining activity at 100 µM (EF2K): 108%; remaining activity at 100 µM (MST2): 99%; remaining activity at 100 µM (MLK3): 54%; remaining activity at 100 µM (TAK1): 76%; remaining activity at 100 µM (SYK): 102%; remaining activity at 100 µM (HER4): 122% |
